Data as given in patent EP1994938A1, “New lipoglycodepsipeptide compositions” (priority 2007, dated 2008).

What was measured:
[1] = system: Staphylococcus aureus ATCC 29213; assay: Broth microdilution MIC (CLSI), Ca2+ adjusted Mueller Hinton broth with 4% human serum albumin; type: cell-based
Protocol: (§1) Herein, the minimum inhibitory concentration for the growth inhibition was determined by cultivation of the bacteria in Ca^2+ adjusted Mueller Hinton broth (broth microdilution method) according to the CLSI (previously NCCLS) rules (National Committee for Clinical Laboratory Standards. 2003. Methods for dilution antimicrobial susceptibility tests for bacteria that grow aerobically; approved standard - 6th ed. Document M7-A6. Clinical and Laboratory Standards Institute, Wayne, PA, USA). […] The Gram-positive strains tested for the cultivation methods were: • Staphylococcus aureus ATCC 29213 • Enterococcus faecalis ATCC 29212
(§2) The following inocula were incubated: Table 3

[2] = system: Enterococcus faecalis ATCC 29212; assay: as above; type: cell-based
Protocol: as §1, §2

[3] = fat emulsion formulation with an oil phase of 8%; cited from earlier work
[4] = system: Streptococcus spp., Staphylococcus spp. and Enterococcus spp.; conditions: including antibiotic resistant strains (VRE, MRSA); cited from earlier work

For ramoplanin, the “Antibiotic activity (MIC)” value ([1]; Ramoplanin : SBE-β-CD 1:0) was 0.5 µg/mL, the “Antibiotic activity (MIC)” value ([1]; Ramoplanin : SBE-β-CD 1:2) was 0.5 µg/mL and the “Antibiotic activity (MIC)” value ([1]; Ramoplanin : SBE-β-CD 1:10) was 0.5 µg/mL. The “Antibiotic activity (MIC)” value ([2]; Ramoplanin : SBE-β-CD 1:0) was 0.5 µg/mL, the “Antibiotic activity (MIC)” value ([2]; Ramoplanin : SBE-β-CD 1:2) was 0.5 µg/mL and the “Antibiotic activity (MIC)” value ([2]; Ramoplanin : SBE-β-CD 1:10) was 0.5 µg/mL. The “effectiveness in septicaemia mouse models” value [3] was “effective” and the “general MICs (Minimal Inhibition Concentrations)” value [4] was “below 1 µg/ml”.
